Data taken from publication PMC11385767 (Heliyon, 2024).
Entries after “also recorded” stand apart in the source; their conditions may differ. No end group written: not given here.

What was measured:
[1] = biological target: HLA-A*11:01 on TAP-deficient T2 cell line (Homo sapiens, UniProt P04439, A114D/D185E/E176A/F33Y/L180Q/S129P/T187R); format: cell-based
[2] = biological target: HLA-A*02:01 (Homo sapiens, UniProt P04439, D140Y/D185E/D98H/E176V/E277Q/G131W/G231S/I119V/I121R/I166T/I218V/L300P/L318F/N151K/N90K/P208A/P217A/Q86G/Q94H/R138H/R169H/T345S); details: ref [20]; cited from earlier work

## STIHDSIQY [STIHDSIQY]
[1]
  binding ability on T2 cell line (in words, rank): no significant difference in IC50 value; also recorded: excellent binding affinity

## KLIMTQVSK [KLIMTQVSK]
[1]
  binding ability on T2 cell line (in words, rank): VITTDHLK ≈ STIHSIQY > KLIMTQVSK > TTDHLKFSK; also recorded: moderate binding affinity

## TTDHLKFSK [TTDHLKFSK]
[1]
  binding ability on T2 cell line (in words, rank): VITTDHLK ≈ STIHSIQY > KLIMTQVSK > TTDHLKFSK; also recorded: lowest binding affinity

## FVGEFFTDV
[2]
  binding to HLA-A*02:01 (in words): positive binding

## VINTTDHLK [VINTTDHLK]
[1]
  binding ability on T2 cell line (in words, rank): VITTDHLK ≈ STIHSIQY > KLIMTQVSK > TTDHLKFSK; also recorded: excellent binding affinity
